The record followed here is patent US20260109732A1, “LIPID AMINES” (ModernaTX, Inc., priority 2021, published 2026).

The test system of data set [1] is HeLa cells. The experiment in a line: CFTR Protein Expression Assay in HeLa Cells. To be noted: LNPs encapsulating CFTR mRNA, N=4 wells; 5 h serum-free then 24 h; immunofluorescence vs PBS control. In kind it is cell-based, Human. In outline:
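Readout is fold-change in per-cell CFTR immunofluorescence intensity (488 nm, confocal imaging) relative to PBS-treated cells, from 4 replicate wells. LNPs encapsulating CFTR mRNA were applied serum-free for 5 h, followed by 24 h in complete medium before PFA fixation.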

The test system of data set [2] is HeLa cells. As to the kind of experiment: Luciferase Protein Expression Assay in HeLa Cells. In kind it is cell-based, Human. The note with it: LNPs encapsulating Luciferase mRNA, 25 ng per well, N=4 wells; 5 h serum-free then 24 h; ONE-Glo. The procedure, abridged: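 Luminescence output, average RLU across N=4 wells, was measured with ONE-Glo after cell lysis. Before that, HeLa cells were exposed to 25 ng/well luciferase-mRNA nanoparticles (PBS control) for 5 h serum-free, then cultured overnight (24 h) in complete MEM.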

The nature of data set [3]: Encapsulation of mRNA nanoparticles with lipid amines using Ribogreen assay. In kind it is physicochemical. In outline:
(§1)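 DLS gave size and PDI, and Ribogreen gave encapsulation, for luciferase- or CFTR-mRNA nanoparticles (N:P 4.93). Particles came from IL1/DSPC/cholesterol/PEG-DMG-2K mixed at pH 4, mRNA-loaded, neutralized with TRIS pH 8.12, and then treated with lipid amine SA50 in pH 7.5 buffer.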

The nature of data set [4]: Diameter and PDI from DLS measurements of mRNA nanoparticles with lipid amines. In kind it is physicochemical. In outline: as §1
Setting [5] is: CFTR mRNA nanoparticle with lipid amine.
Setting [6] is: Luciferase mRNA nanoparticle modified with lipid amine.

Where a name gives a salt, the structure may show the parent alone.

As to `CC(C)CCC[C@@H](C)[C@H]1CC[C@H]2[C@@H]3CC=C4C[C@@H](SSCCC(=O)N(CCCN)CCCCCCCCN)CC[C@]4(C)[C@H]3CC[C@]12C` [SA97, N-(8-Aminooctyl)-N-(3-aminopropyl)-3-(((3S,8S,9S,10R,13R,14S,17R)-10,13-dimethyl-17-((R)-6-methylheptan-2-yl)-2,3,4,7,8,9,10,11,12,13,14,15,16,17-tetradecahydro-1H-cyclopenta[a]phenanthren-3-yl)disulfaneyl)propanamide dihydrochloride], in the data set with HeLa cells [1], the “Average fold-change in CFTR signal intensity per cell compared to buffer control ± standard deviation” value came out at 5.3 ± 1.0 fold-change. For the same compound, the “Average Relative Light Units ± Standard Deviation” value with HeLa cells [2] came out at 13144.4 ± 4350.5 Relative Light Units. Moreover, the “% Encapsulation (Ribogreen)” value in data set [3] (setting [5]) is reported as 98.4%; in data set [3] (setting [6]), 98.8%. Further, the figures for the “Diameter (nm)” value in data set [4] (setting [5]) and in data set [4] (setting [6]) were 83.2 nm and 72 nm, respectively. For the same compound, the PDI in data set [4] (setting [5]) turned out to be 0.12; in data set [4] (setting [6]), 0.16.
For `CC(C)CCC[C@@H](C)[C@H]1CC[C@H]2[C@@H]3CC=C4C[C@@H](OC(=O)CSSCC(=O)N(CCCN)CCCCNCCCN)CC[C@]4(C)[C@H]3CC[C@]12C` [SA98, (3S,8S,9S,10R,13R,14S,17R)-10,13-dimethyl-17-((R)-6-methylheptan-2-yl)-2,3,4,7,8,9,10,11,12,13,14,15,16,17-tetradecahydro-1H-cyclopenta[a]phenanthren-3-yl 2-((2-((3-aminopropyl)(4-((3-aminopropyl)amino)butyl)amino)-2-oxoethyl)disulfaneyl)acetate trihydrochloride], the “Average fold-change in CFTR signal intensity per cell compared to buffer control ± standard deviation” value in the data set on HeLa cells [1] is 1.0 ± 0 fold-change. The “Average Relative Light Units ± Standard Deviation” value with HeLa cells [2] stood at 80.7 ± 36.7 Relative Light Units. Further, the “% Encapsulation (Ribogreen)” value in data set [3] (setting [5]) is recorded as 93%; in data set [3] (setting [6]) it was 97.0%. Besides, the “Diameter (nm)” value in data set [4] (setting [5]) was 82.8 nm; in data set [4] (setting [6]) it was 70 nm. Further, the PDI came out at 0.14 in data set [4] (setting [5]) and 0.15 in data set [4] (setting [6]).
On to `CC(C)CCC[C@@H](C)[C@H]1CC[C@H]2[C@@H]3CC=C4C[C@@H](SSCCCCC(=O)N(CCCN)CCCCCCCCN)CC[C@]4(C)[C@H]3CC[C@]12C` [SA110, N-(8-Aminooctyl)-N-(3-aminopropyl)-5-(((3S,8S,9S,10R,13R,14S,17R)-10,13-dimethyl-17-((R)-6-methylheptan-2-yl)-2,3,4,7,8,9,10,11,12,13,14,15,16,17-tetradecahydro-1H-cyclopenta[a]phenanthren-3-yl)disulfaneyl)pentanamide dihydrochloride], for which the “Average fold-change in CFTR signal intensity per cell compared to buffer control ± standard deviation” value with HeLa cells [1] is 4.0 ± 0.2 fold-change. In addition, the “Average Relative Light Units ± Standard Deviation” value in the data set with HeLa cells [2] was 14227 ± 2513.9 Relative Light Units. Moreover, the “% Encapsulation (Ribogreen)” value in data set [3] (setting [5]) and in data set [3] (setting [6]) was 98.8% each time. Further, the figures for the “Diameter (nm)” value in data set [4] (setting [5]) and in data set [4] (setting [6]) were 84.2 nm and 70 nm, respectively. The PDI in data set [4] (setting [5]) came to 0.15; in data set [4] (setting [6]), 0.14.
With `CC[C@H](CC[C@@H](C)[C@H]1CC[C@H]2[C@@H]3CC=C4C[C@@H](OC(=O)N(CCCCNCCC(C)(C)N)CCC(C)(C)N)CC[C@]4(C)[C@H]3CC[C@]12C)C(C)C` [SA114, (3S,8S,9S,10R,13R,14S,17R)-17-((2R,5R)-5-ethyl-6-methylheptan-2-yl)-10,13-dimethyl-2,3,4,7,8,9,10,11,12,13,14,15,16,17-tetradecahydro-1H-cyclopenta[a]phenanthren-3-yl (3-amino-3-methylbutyl)(4-((3-amino-3-methylbutyl)amino)butyl)carbamate trihydrochloride], the “Average fold-change in CFTR signal intensity per cell compared to buffer control ± standard deviation” value in the data set on HeLa cells [1] is listed as 6.3 ± 1.3 fold-change. Also, the “Average Relative Light Units ± Standard Deviation” value in the data set on HeLa cells [2] was found to be 22594.3 ± 9128.4 Relative Light Units. Further, the results for the “% Encapsulation (Ribogreen)” value in data set [3] (setting [5]) and in data set [3] (setting [6]) were 98.5% and 99.7%, respectively. Further, the “Diameter (nm)” value is reported as 85.9 nm in data set [4] (setting [5]) and 75 nm in data set [4] (setting [6]). For the same compound, the PDI was determined as 0.13 in data set [4] (setting [5]) and 0.18 in data set [4] (setting [6]).
In the case of `CC[C@H](CC[C@@H](C)[C@H]1CC[C@H]2[C@@H]3CC=C4C[C@@H](OC(=O)CCCC(=O)N(CCCN)CCCCNCCCN)CC[C@]4(C)[C@H]3CC[C@]12C)C(C)C` [SA117, (3S,8S,9S,10R,13R,14S,17R)-17-((2R,5R)-5-ethyl-6-methylheptan-2-yl)-10,13-dimethyl-2,3,4,7,8,9,10,11,12,13,14,15,16,17-tetradecahydro-1H-cyclopenta[a]phenanthren-3-yl 5-((3-aminopropyl)(4-((3-aminopropyl)amino)butyl)amino)-5-oxopentanoate trihydrochloride], the “Average fold-change in CFTR signal intensity per cell compared to buffer control ± standard deviation” value with HeLa cells [1] was determined as 4.9 ± 1.2 fold-change. In addition, in the data set with HeLa cells [2], the “Average Relative Light Units ± Standard Deviation” value was 10134.1 ± 3860.2 Relative Light Units. Moreover, the “% Encapsulation (Ribogreen)” value in data set [3] (setting [5]) worked out at 98.6%; in data set [3] (setting [6]) it was 99.7%. The “Diameter (nm)” value in data set [4] (setting [5]) amounted to 94.7 nm; in data set [4] (setting [6]) it was 77 nm. For the same compound, the PDI in data set [4] (setting [5]) is 0.17; in data set [4] (setting [6]), 0.28.
For `CC[C@H](CC[C@@H](C)[C@H]1CC[C@H]2[C@@H]3CC=C4C[C@@H](OC(=O)[C@H](C)N(CCCN)CCCCNCCCN)CC[C@]4(C)[C@H]3CC[C@]12C)C(C)C` [SA118, (3S,8S,9S,10R,13R,14S,17R)-17-((2R,5R)-5-ethyl-6-methylheptan-2-yl)-10,13-dimethyl-2,3,4,7,8,9,10,11,12,13,14,15,16,17-tetradecahydro-1H-cyclopenta[a]phenanthren-3-yl N-(3-aminopropyl)-N-(4-((3-aminopropyl)amino)butyl)alaninate tetrahydrochloride], in the data set on HeLa cells [1], the “Average fold-change in CFTR signal intensity per cell compared to buffer control ± standard deviation” value is recorded as 9.7 ± 1.2 fold-change. In the data set on HeLa cells [2], the “Average Relative Light Units ± Standard Deviation” value is recorded as 12261.7 ± 4328.5 Relative Light Units. The “% Encapsulation (Ribogreen)” value in data set [3] (setting [5]) came to 97.9%; in data set [3] (setting [6]), 99.7%. For the same compound, the “Diameter (nm)” value in data set [4] (setting [5]) is on record as 89.9 nm; in data set [4] (setting [6]) it was 74 nm. Besides, the PDI in data set [4] (setting [5]) was 0.16; in data set [4] (setting [6]) it was 0.19.
On to `CC[C@H](CC[C@@H](C)[C@H]1CC[C@H]2[C@@H]3CC=C4C[C@@H](OC(=O)CN(CCCN)CCCCNCCCN)CC[C@]4(C)[C@H]3CC[C@]12C)C(C)C` [SA119, (3S,8S,9S,10R,13R,14S,17R)-17-((2R,5R)-5-ethyl-6-methylheptan-2-yl)-10,13-dimethyl-2,3,4,7,8,9,10,11,12,13,14,15,16,17-tetradecahydro-1H-cyclopenta[a]phenanthren-3-yl N-(3-aminopropyl)-N-(4-((3-aminopropyl)amino)butyl)glycinate tetrahydrochloride], for which the “Average fold-change in CFTR signal intensity per cell compared to buffer control ± standard deviation” value with HeLa cells [1] is on record as 5.7 ± 1.0 fold-change. Besides, the “Average Relative Light Units ± Standard Deviation” value in the data set with HeLa cells [2] turned out to be 18979.6 ± 7864.8 Relative Light Units. Moreover, the “% Encapsulation (Ribogreen)” value in data set [3] (setting [5]) is 98.9%; in data set [3] (setting [6]), 99.4%. The “Diameter (nm)” value in data set [4] (setting [5]) is reported as 88.3 nm; in data set [4] (setting [6]), 78 nm. For the same compound, the PDI in data set [4] (setting [5]) came out at 0.15; in data set [4] (setting [6]), 0.18.
Regarding `CC[C@H](CC[C@@H](C)[C@H]1CC[C@H]2[C@@H]3CC=C4C[C@@H](OC(=O)N(CCCN)CCCCN)CC[C@]4(C)[C@H]3CC[C@]12C)C(C)C` [SA120, (3S,8S,9S,10R,13R,14S,17R)-17-((2R,5R)-5-Ethyl-6-methylheptan-2-yl)-10,13-dimethyl-2,3,4,7,8,9,10,11,12,13,14,15,16,17-tetradecahydro-1H-cyclopenta[a]phenanthren-3-yl (4-aminobutyl)(3-aminopropyl)carbamate dihydrochloride], the “Average fold-change in CFTR signal intensity per cell compared to buffer control ± standard deviation” value with HeLa cells [1] is given as 16.8 ± 1.1 fold-change. In addition, the “Average Relative Light Units ± Standard Deviation” value in the data set on HeLa cells [2] is on record as 34695.5 ± 9492.2 Relative Light Units. The “% Encapsulation (Ribogreen)” value in data set [3] (setting [5]) stood at 97.5%; in data set [3] (setting [6]), 99.1%. For the same compound, the entries for the “Diameter (nm)” value in data set [4] (setting [5]) and in data set [4] (setting [6]) were 83.6 nm and 76 nm, respectively. In addition, the figures for the PDI in data set [4] (setting [5]) and in data set [4] (setting [6]) were 0.14 and 0.28, respectively.
As for `CC(C)CCC[C@@H](C)[C@H]1CC[C@H]2[C@@H]3CC=C4C[C@@H](OC(=O)CN(CCCCCCCCN)C(=O)CCCCN)CC[C@]4(C)[C@H]3CC[C@]12C` [SA122, (3S,8S,9S,10R,13R,14S,17R)-10,13-Dimethyl-17-((R)-6-methylheptan-2-yl)-2,3,4,7,8,9,10,11,12,13,14,15,16,17-tetradecahydro-1H-cyclopenta[a]phenanthren-3-yl N-(8-aminooctyl)-N-(5-aminopentanoyl)glycinate dihydrochloride], in the data set on HeLa cells [1], the “Average fold-change in CFTR signal intensity per cell compared to buffer control ± standard deviation” value is reported as 14.8 ± 1.1 fold-change. Also, the “Average Relative Light Units ± Standard Deviation” value in the data set with HeLa cells [2] was 29605.6 ± 6326.9 Relative Light Units. In addition, the entries for the “% Encapsulation (Ribogreen)” value in data set [3] (setting [5]) and in data set [3] (setting [6]) were 98.6% and 99.4%, respectively. Besides, the “Diameter (nm)” value in data set [4] (setting [5]) turned out to be 83.5 nm; in data set [4] (setting [6]), 75 nm. Moreover, the results for the PDI in data set [4] (setting [5]) and in data set [4] (setting [6]) were 0.13 and 0.15, respectively.
